Results taken from publication PMC6267282, “Targeting the DNA Repair Endonuclease ERCC1-XPF with Green Tea Polyphenol Epigallocatechin-3-Gallate (EGCG) and Its Prodrug to Enhance Cisplatin Efficacy in Human Cancer Cells” (Nutrients, 2018).

Molecular target: T1, ERCC1/XPF (XPF endonuclease) (Homo sapiens, UniProt Q92889)
T1 construct: gene ERCC4; with ERCC1
Test: fluorescence-based DNA incision assay with purified ERCC1/XPF
Assay type: biochemical

T1 sequence (Q92889 whole entry): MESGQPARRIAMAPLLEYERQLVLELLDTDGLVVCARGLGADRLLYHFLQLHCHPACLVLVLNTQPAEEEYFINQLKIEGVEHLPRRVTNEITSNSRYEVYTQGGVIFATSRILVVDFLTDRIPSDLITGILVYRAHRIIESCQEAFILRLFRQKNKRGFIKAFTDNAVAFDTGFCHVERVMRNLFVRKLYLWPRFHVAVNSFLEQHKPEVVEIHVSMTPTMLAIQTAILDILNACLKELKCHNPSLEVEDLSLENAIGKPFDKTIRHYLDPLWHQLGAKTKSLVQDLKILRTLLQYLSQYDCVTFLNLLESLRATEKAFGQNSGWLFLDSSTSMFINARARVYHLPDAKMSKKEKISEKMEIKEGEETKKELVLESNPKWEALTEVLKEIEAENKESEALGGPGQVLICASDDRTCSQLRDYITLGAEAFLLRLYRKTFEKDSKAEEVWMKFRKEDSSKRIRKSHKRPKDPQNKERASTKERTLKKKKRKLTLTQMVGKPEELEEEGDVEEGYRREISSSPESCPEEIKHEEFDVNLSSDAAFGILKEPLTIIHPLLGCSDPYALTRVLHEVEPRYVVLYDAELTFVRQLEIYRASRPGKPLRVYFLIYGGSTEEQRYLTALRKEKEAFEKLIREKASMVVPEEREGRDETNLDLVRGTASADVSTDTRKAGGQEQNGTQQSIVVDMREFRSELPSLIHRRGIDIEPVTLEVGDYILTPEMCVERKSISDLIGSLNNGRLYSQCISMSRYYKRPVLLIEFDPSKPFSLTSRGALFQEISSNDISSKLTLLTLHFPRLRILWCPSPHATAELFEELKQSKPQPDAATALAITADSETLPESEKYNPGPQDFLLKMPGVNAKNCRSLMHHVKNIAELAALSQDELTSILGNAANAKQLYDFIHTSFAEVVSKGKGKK
T1 sequence (P07992 whole entry, further chain): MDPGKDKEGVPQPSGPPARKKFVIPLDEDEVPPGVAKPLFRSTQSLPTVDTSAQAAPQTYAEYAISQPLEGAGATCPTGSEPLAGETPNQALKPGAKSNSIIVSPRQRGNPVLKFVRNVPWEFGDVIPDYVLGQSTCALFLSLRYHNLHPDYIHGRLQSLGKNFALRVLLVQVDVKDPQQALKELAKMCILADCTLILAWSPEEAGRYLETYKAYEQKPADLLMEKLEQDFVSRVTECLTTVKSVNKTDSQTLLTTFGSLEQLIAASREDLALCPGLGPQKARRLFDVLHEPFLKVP

O=c1c(O)c(-c2cc(O)c(O)c(O)c2)oc2cc(O)cc(O)c12 [Myricetin]
IC50: ~150 nM
